This is an account of results in ChEMBL document CHEMBL5614391, “GPX4 allosteric activators inhibit ferroptosis and exert myocardial protection in doxorubicin-induced myocardial injury mouse model” (Eur J Med Chem, 2024).

One test deals with HT-1080. Briefly: Reversal of erastin induced cell death in human HT-1080 cells assessed as cell viability preincubated for 1 hr followed by erastin addition and measured after 24 hrs by CCK8 method. (Tetrazolium assays rely on reduction of a dye to a coloured formazan, in cell work by metabolically active cells.)
Turning to `COc1ccc(NCc2cccn2-c2nnc(N3CCN(C)CC3)s2)cc1OC`, the EC50 was found to be 19.2 µM. For the compound `COc1ccc(NCc2cccn2-c2nnc(N3CCN(C)CC3)s2)c(OC)c1`, the EC50 was 7.8 µM.

Another test addresses T1, Phospholipid hydroperoxide glutathione peroxidase GPX4 (Homo sapiens, UniProt P36969).
T1 sequence (P36969 whole entry): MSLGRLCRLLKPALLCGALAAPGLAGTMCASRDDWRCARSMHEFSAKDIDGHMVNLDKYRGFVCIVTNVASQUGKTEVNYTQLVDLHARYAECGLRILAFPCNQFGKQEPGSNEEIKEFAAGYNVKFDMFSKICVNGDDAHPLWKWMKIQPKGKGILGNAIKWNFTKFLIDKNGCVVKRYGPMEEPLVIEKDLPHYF
Briefly: Binding affinity to GPX4 (unknown origin) assessed as dissociation constant by surface plasmon resonance.
On to `CCN(CC)c1nnc(-n2cccc2CNc2ccc(OC)c(OC)c2)s1`, for which the Kd came to 9.8 µM. `CCOc1cc(NCc2cccn2-c2nnc(N3CCN(C)CC3)s2)ccc1OC`: the Kd turned out to be 10.7 µM.

For the compound `COc1ccc(NCc2cccn2-c2nnc(N3CCOCC3)s2)c(OC)c1`, the Kd came out at 10.5 µM. In the case of `COc1ccc(NCc2cccn2-c2nn3ccnc3s2)cc1OC`, the Kd is 4.23 µM. Take `COc1ccc(NCc2cccn2-c2nnc(N3CCN(C)CC3)s2)cc1OC`: the Kd is 5.86 µM. `COc1ccc(NCc2cccn2-c2nnc(N)s2)cc1OC`: the Kd came to 0.17 µM. As to `COc1ccc(NCc2cccn2-c2nnc(NC(=O)c3ccc(F)cc3)s2)cc1OC`, the Kd was 4.69 µM.

In the case of `COc1ccc(NCc2cccn2-c2nc3ccccc3s2)cc1OC`, the Kd amounted to 4.99 µM. Take `COc1ccc(NCc2cccn2-c2cccc(Cl)n2)cc1OC`: the Kd was 1.05 µM.

With `COc1ccc(NCc2cccn2-c2ccc(Cl)cc2)cc1OC`, the Kd is 1.14 µM. For `COc1ccc(NCc2cccn2-c2nnc(NC(=O)c3ccccc3)s2)cc1OC`, the Kd was found to be 1.27 µM. Still for that read-out and setting: the figure for `COc1ccc(NCc2cccn2-c2nnc(N3CCN(C)CC3)s2)c(OC)c1` is 0.426 µM. With `COc1ccc(NCc2cccn2-c2nn3ccnc3s2)c(OC)c1`, the Kd was determined as 0.717 µM. `COc1ccc(NCc2cccn2-c2nnc(N3CCCCC3)s2)cc1OC`: the equilibrium dissociation constant (Kd) came out at 5.69 µM. As for `COc1ccc(NCc2cccn2-c2nnc(NC(=O)c3ccccc3F)s2)cc1OC`, the Kd was determined as 10.5 µM. With `COc1ccc(NCc2cc3ccccc3n2-c2nnc(N3CCN(C)CC3)s2)cc1OC`, the Kd is 4.06 µM. Still for that read-out and setting: the figure for `COc1ccc(NCc2cccn2-c2nnc(NC(=O)c3cccc(F)c3)s2)cc1OC` is 0.931 µM; for `COc1ccc(NCc2ccnn2-c2nnc(N3CCN(C)CC3)s2)cc1OC` it is 4.64 µM; for `COc1ccc(NCc2cccn2-c2cccc(N3CCN(C)CC3)n2)cc1OC` it is 2.1 µM. In the case of `COc1ccc(NCc2cccn2-c2nnc(C)s2)cc1OC`, the Kd came out at 4.48 µM. As for `COc1ccc(NCc2cccn2-c2cnc(C)s2)cc1OC`, the equilibrium dissociation constant (Kd) came out at 8.24 µM. For `COc1ccc(NCc2cccn2-c2nncs2)cc1OC`, the Kd is 7.91 µM.

Turning to `COc1ccc(NCc2cccn2-c2ccc(N3CCN(C)CC3)s2)cc1OC`, the Kd was 6.9 µM. Regarding `COc1ccc(NCc2cncn2-c2nnc(N3CCN(C)CC3)s2)cc1OC`, the Kd was 3.43 µM. In the case of `COc1ccc(NCc2cccn2-c2nnc(N3CCN(C)CC3)s2)cc1`, the Kd came to 7.87 µM. As for `COc1ccc(NCc2cccn2-c2nnc(N(C)C)s2)cc1OC`, the Kd was determined as 5.22 µM.

Take `CCCN1CCN(c2nnc(-n3cccc3CNc3ccc(OC)c(OC)c3)s2)CC1`: the Kd turned out to be 0.036 µM. For the compound `COc1ccc(NCc2cccn2-c2nnc(N3CCOCC3)s2)cc1OC`, the Kd worked out at 27.1 µM. As to `CN1CCN(c2nnc(-n3cccc3CNc3ccc4c(c3)OCCO4)s2)CC1`, the Kd is 0.835 µM.

A word on the EC50: it is the midpoint of the concentration-response curve. A word on the Kd: it is the constant that tells how readily two partners part at equilibrium.
